Results taken from US20250243203A1, “NICOTINAMIDE- AND BENZAMIDE-BASED COMPOUNDS, CONJUGATES, AND COMPOSITIONS AS INHIBITORS OF TRANSLATIONAL- AND TRANSCRIPTIONAL-RELATED KINASES” (PURDUE RESEARCH FOUNDATION, priority 2022, published 2025).
Where two headings read alike, the source gives them in different places.

Legend:
p70S6K = p70S6K (Homo sapiens, UniProt P23443); assay: p70S6K inhibition, in vitro studies at Reaction Biology Corporation; format: biochemical; conditions: 25 nM compound, [ATP]=10 uM
Experimental: The nature of the substituent on the imidazo[1,2-b]pyridazine moiety at position-6 was evaluated in in vitro studies performed at Reaction Biology Corporation (Malvern, PA). The results indicated the specific substituent dramatically affected the inhibition of p70S6K.

MNK2 = MNK2 (Homo sapiens, UniProt Q9HBH9); assay: MNK2 inhibition, in vitro studies at Reaction Biology Corporation; format: biochemical; conditions: 50 nM compound, 10 uM ATP
CT-26 C2 tumor cells = assay: CT-26 in vivo tumor reduction; set-up: species or system BALB/c female mouse; conditions: CT-26, day 17 from start of dosing, oral QD
Experimental: Each BALB/c female mouse was inoculated subcutaneously at the right flank with CT-26 C2 tumor cells (0.3×10^6/mouse) in 0.1 mL PBS for tumor development. Treatments for the efficacy study were started on day 10 after tumor inoculation when the average tumor size reached approximately 71 mm^3. Each group consisted of 6 tumor-bearing mice. Vehicle control was 25 mM citrate buffer (pH 2.5). HSND80 was dosed orally QD at 15 mg/Kg for 4 days and 10 mg/Kg afterwards. HSND100 was dosed at 15 mg/Kg. Mice were dosed 5 days on and 2 days off (drug holiday). Tumors were measured every other day (L, W, H) to give tumor volume in mm^3.

[1] = molecular target: T1, AXL receptor tyrosine kinase (AXL) (Homo sapiens, UniProt P30530); assay: KINOMEscan competition binding assay (Eurofins DiscoverX), AXL
T1 construct: purchased Eurofins DiscoverX (KINOMEscan service)
T1 sequence (P30530 26-894): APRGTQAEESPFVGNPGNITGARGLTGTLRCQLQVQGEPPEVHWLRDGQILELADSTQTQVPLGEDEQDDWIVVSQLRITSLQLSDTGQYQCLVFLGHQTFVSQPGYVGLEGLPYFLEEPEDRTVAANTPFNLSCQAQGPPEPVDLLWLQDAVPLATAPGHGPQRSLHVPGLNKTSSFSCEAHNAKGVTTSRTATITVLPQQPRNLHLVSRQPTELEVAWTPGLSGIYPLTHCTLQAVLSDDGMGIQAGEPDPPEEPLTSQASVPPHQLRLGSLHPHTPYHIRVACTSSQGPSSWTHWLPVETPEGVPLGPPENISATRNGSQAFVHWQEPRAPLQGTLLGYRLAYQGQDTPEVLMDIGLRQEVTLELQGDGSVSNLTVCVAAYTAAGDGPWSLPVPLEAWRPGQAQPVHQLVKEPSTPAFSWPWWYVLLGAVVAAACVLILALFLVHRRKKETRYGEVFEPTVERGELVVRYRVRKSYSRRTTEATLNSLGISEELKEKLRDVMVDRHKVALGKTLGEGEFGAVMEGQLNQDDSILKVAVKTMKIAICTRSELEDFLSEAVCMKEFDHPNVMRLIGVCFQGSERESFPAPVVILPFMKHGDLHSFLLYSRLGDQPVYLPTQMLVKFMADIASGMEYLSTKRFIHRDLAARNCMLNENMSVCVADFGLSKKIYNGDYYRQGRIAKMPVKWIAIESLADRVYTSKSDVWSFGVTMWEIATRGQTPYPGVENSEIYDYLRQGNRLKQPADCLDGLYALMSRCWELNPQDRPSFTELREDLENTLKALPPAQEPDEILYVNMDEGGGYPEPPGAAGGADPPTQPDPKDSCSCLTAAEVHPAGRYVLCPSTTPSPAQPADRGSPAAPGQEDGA
Experimental: The affinity of several compounds hereof having a substituent on the imidazo[1,2-b]pyridazine moiety at position-6, wherein the substituent comprised one or more ring moieties was evaluated with respect to two TAM kinases: AXL and MERTK. […] The assay uses DNA-tagged kinase, an immobilized ligand, and the test compound. Quantitative polymerase chain reaction (PCR) of the DNT tag was then used to measure the ability of the tested compound to displace the immobilized ligand.

[2] = molecular target: T2, MER Proto-Oncogene tyrosine kinase (MERTK) (Homo sapiens, UniProt Q12866); assay: KINOMEscan competition binding assay (Eurofins DiscoverX), MERTK
T2 construct: purchased Eurofins DiscoverX (KINOMEscan service)
T2 sequence (Q12866 21-999): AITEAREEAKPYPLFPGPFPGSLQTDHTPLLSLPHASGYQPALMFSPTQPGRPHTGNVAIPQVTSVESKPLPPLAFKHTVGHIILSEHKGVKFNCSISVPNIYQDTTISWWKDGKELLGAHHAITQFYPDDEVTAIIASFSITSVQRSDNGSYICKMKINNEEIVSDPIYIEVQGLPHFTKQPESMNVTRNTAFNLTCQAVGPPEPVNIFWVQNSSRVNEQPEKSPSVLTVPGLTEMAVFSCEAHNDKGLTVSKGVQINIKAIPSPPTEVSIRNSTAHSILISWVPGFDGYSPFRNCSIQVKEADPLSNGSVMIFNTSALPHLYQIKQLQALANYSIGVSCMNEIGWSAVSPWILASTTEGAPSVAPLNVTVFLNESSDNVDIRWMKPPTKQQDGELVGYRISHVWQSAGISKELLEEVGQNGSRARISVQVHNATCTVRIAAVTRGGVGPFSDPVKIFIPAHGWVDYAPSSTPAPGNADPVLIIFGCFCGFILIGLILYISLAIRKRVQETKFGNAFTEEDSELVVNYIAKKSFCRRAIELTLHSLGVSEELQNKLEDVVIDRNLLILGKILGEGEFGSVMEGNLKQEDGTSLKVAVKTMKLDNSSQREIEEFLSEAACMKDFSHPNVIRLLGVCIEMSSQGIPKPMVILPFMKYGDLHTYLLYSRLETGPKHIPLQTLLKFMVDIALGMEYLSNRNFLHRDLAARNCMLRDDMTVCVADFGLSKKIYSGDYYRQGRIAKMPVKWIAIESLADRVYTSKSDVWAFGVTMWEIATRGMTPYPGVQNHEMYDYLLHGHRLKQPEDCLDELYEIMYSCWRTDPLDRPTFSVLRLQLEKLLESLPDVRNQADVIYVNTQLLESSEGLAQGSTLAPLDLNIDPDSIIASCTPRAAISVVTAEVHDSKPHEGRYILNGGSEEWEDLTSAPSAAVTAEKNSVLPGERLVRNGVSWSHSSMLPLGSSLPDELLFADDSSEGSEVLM
Experimental: The affinity of several compounds hereof having a substituent on the imidazo[1,2-b]pyridazine moiety at position-6, wherein the substituent comprised one or more ring moieties was evaluated with respect to two TAM kinases: AXL and MERTK. Perhaps more specifically, the equilibrium dissociation constant between each of compounds HSND141, compound HSND149, HSND150, HSND151, and HSND80 and AXL and MERTK was evaluated at Eurofins DiscoverX using KINOMEscan™, which is a competition binding assay that quantitively measured the ability of each tested compound to displace an immobilized, active-site directed ligand. The assay uses DNA-tagged kinase, an immobilized ligand, and the test compound. Quantitative polymerase chain reaction (PCR) of the DNT tag was then used to measure the ability of the tested compound to displace the immobilized ligand.

[3] = patients on ponatinib; cited from earlier work
[4] = tested on: MDA-MB-231 (breast cancer); assay: Growth inhibition of MDA-MB-231 (NCI-60 human tumor cell line screen); format: cell-based; conditions: NCI-60 screening
[5] = Table 1, DiscoverX Eurofins, read-out: Kd AXL
[6] = Table 1, DiscoverX Eurofins, read-out: Kd MERTK

Chain of p70S6K (P23443 whole entry): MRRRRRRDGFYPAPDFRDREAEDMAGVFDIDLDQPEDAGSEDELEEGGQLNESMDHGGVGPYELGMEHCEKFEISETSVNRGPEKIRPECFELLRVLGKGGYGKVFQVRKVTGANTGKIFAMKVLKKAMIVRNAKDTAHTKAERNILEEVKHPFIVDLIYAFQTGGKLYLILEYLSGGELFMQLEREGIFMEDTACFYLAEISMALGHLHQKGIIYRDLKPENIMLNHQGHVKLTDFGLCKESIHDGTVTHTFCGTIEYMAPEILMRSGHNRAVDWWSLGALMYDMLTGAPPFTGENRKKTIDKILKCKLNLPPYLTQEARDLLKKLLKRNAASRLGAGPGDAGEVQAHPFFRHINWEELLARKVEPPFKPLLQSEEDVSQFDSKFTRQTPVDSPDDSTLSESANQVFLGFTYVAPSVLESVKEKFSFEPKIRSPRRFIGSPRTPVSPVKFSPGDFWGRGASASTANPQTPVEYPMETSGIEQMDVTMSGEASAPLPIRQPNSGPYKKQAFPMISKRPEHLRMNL
Chain of MNK2 (Q9HBH9 whole entry): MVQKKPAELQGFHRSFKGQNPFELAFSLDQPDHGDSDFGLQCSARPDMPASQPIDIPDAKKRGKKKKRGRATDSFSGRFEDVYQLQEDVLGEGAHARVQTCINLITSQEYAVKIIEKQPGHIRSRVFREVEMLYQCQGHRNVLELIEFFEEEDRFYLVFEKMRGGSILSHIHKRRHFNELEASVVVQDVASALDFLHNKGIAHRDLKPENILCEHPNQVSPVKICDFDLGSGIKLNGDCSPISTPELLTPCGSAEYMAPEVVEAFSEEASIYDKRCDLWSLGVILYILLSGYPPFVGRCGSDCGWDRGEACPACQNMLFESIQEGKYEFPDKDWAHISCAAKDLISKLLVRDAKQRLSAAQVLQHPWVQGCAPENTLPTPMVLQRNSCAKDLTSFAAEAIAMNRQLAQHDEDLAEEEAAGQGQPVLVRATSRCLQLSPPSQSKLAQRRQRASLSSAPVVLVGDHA

## CN1CCN(Cc2ccc(NC(=O)c3cncc(C#Cc4cnc5ccc(N6CCSCC6)nn45)c3)cc2C(F)(F)F)CC1 [HSND79, N-(4-((4-Methylpiperazin-1-yl)methyl)-3-(trifluoromethyl)phenyl)-5-((6-thiomorpholinoimidazo[1,2-b]pyridazin-3-yl)ethynyl)nicotinamide]
p70S6K
  inhibition of p70S6K: 95%
MNK2
  inhibition at 0.05 µM: 94%

## CC1CN(c2ccc3ncc(C#Cc4cncc(C(=O)Nc5ccc(CN6CCN(C)CC6)c(C(F)(F)F)c5)c4)n3n2)C[C@@H](C)O1 (stereo in doubt) [HSND100, 5-((6-((2R,6R)-2,6-Dimethylmorpholino)imidazo[1,2-b]pyridazin-3-yl)ethynyl)-N-(4-((4-methylpiperazin-1-yl)methyl)-3-(trifluoromethyl)phenyl)nicotinamide]
CT-26 C2 tumor cells
  tumor reduction compared to vehicle control: 36%

## CN1CCN(Cc2ccc(NC(=O)c3cncc(C#Cc4cnc5ccc(N6CC7(COC7)C6)nn45)c3)cc2C(F)(F)F)CC1 [HSND149, 5-((6-(2-Oxa-6-azaspiro[3.3]heptan-6-yl)imidazo[1,2-b]pyridazin-3-yl)ethynyl)-N-(4-((4-methylpiperazin-1-yl)methyl)-3-(trifluoromethyl)phenyl)nicotinamide]
[1]; [5]
  Kd: 3.7 nM
[2]; [6]
  Kd: 0.2 nM

## CN1CCN(Cc2ccc(NC(=O)c3cncc(C#Cc4cnc5ccc(N6C[C@H]7C[C@@H]6CO7)nn45)c3)cc2C(F)(F)F)CC1 [HSND150, 5-((6-((1R,4R)-2-Oxa-5-azabicyclo[2.2.1]heptan-5-yl)imidazo[1,2-b]pyridazin-3-yl)ethynyl)-N-(4-((4-methylpiperazin-1-yl)methyl)-3-(trifluoromethyl)phenyl)nicotinamide]
[1]; [5]
  Kd: 2.8 nM
[2]; [6]
  Kd: < 0.17 nM

## CN1CCN(Cc2ccc(NC(=O)c3cncc(C#Cc4cnc5ccc(N6CCN(C)CC6)nn45)c3)cc2C(F)(F)F)CC1 [HSND77, 5-((6-(4-Methylpiperazin-1-yl)imidazo[1,2-b]pyridazin-3-yl)ethynyl)-N-(4-((4-methylpiperazin-1-yl)methyl)-3-(trifluoromethyl)phenyl)nicotinamide]
p70S6K
  inhibition of p70S6K: 95%
MNK2
  inhibition at 0.05 µM: 92%

## Cc1ccc(C(=O)Nc2ccc(CN3CCN(C)CC3)c(C(F)(F)F)c2)cc1C#Cc1cnc2cccnn12 [ponatinib, Ponatinib, reference compound]
p70S6K
  inhibition of p70S6K: 38%
[3]
  patients developing some form of thrombosis: about 40%

## CN1CCN(Cc2ccc(NC(=O)c3cncc(C#Cc4cnc5ccc(N6C[C@@H]7C[C@H]6CO7)nn45)c3)cc2C(F)(F)F)CC1 [HSND151, 5-((6-((1S,4S)-2-Oxa-5-azabicyclo[2.2.1]heptan-5-yl)imidazo[1,2-b]pyridazin-3-yl)ethynyl)-N-(4-((4-methylpiperazin-1-yl)methyl)-3-(trifluoromethyl)phenyl)nicotinamide]
[1]; [5]
  Kd: 3.3 nM
[2]; [6]
  Kd: < 0.17 nM

## CN1CCN(Cc2ccc(NC(=O)c3cncc(C#Cc4cnc5ccc(N6C7CCC6COC7)nn45)c3)cc2C(F)(F)F)CC1 [HSND141, 5-((6-(3-Oxa-8-azabicyclo[3.2.1]octan-8-yl)imidazo[1,2-b]pyridazin-3-yl)ethynyl)-N-(4-((4-methylpiperazin-1-yl)methyl)-3-(trifluoromethyl)phenyl)nicotinamide]
[1]
  Kd: 1.2 nM
[2]
  Kd: 0.22 nM

## CN(C)CCNc1ccc2ncc(C#Cc3cncc(C(=O)Nc4ccc(CN5CCN(C)CC5)c(C(F)(F)F)c4)c3)n2n1 [HSND39, 5-((6-((2-(Dimethylamino)ethyl)amino)imidazo[1,2-b]pyridazin-3-yl)ethynyl)-N-(4-((4-methylpiperazin-1-yl)methyl)-3-(trifluoromethyl)phenyl)nicotinamide]
[4]
  GI50: 571 nM

## CN1CCN(Cc2ccc(NC(=O)c3cncc(C#Cc4cnc5ccc(N6CCOCC6)nn45)c3)cc2C(F)(F)F)CC1 [HSND41, N-(4-((4-Methylpiperazin-1-yl)methyl)-3-(trifluoromethyl)phenyl)-5-((6-morpholinoimidazo[1,2-b]pyridazin-3-yl)ethynyl)nicotinamide]
[4]
  GI50: 35 nM

## CN1CCN(Cc2ccc(NC(=O)c3cncc(C#Cc4cnc5ccc(N)nn45)c3)cc2C(F)(F)F)CC1 [HSND37, 5-((6-Aminoimidazo[1,2-b]pyridazin-3-yl)ethynyl)-N-(4-((4-methylpiperazin-1-yl)methyl)-3-(trifluoromethyl)phenyl)nicotinamide]
[4]
  GI50: 413 nM

## CN(C)CCN(C)c1ccc2ncc(C#Cc3cncc(C(=O)Nc4ccc(CN5CCN(C)CC5)c(C(F)(F)F)c4)c3)n2n1 [HSND40, 5-((6-((2-(Dimethylamino)ethyl)(methyl)amino)imidazo[1,2-b]pyridazin-3-yl)ethynyl)-N-(4-((4-methylpiperazin-1-yl)methyl)-3-(trifluoromethyl)phenyl)nicotinamide]
[4]
  GI50: 889 nM
